Assay results published in US7105730B1, “Nucleic acid molecules and other molecules associated with sterol synthesis and metabolism” (Monsanto Technology L.L.C., priority 1999, dated 2006).

System: HES1 (YOR237W) transcript in wild type yeast LPY9
Assay: Yeast transcript profiling by array hybridization after ketoconazole treatment
Format: cell-based, Saccharomyces cerevisiae
Settings: yeast LPY9, array of yeast ORF sequences; SEQ ID NO: 5
Method: The yeast strain LPY9 (MATa, leu2, Ura3, his3) is grown overnight and inoculated into SD+ hul (histidine, uracil, leucine) media. Aliquots of the culture are treated with ketoconazole (an inhibitor of C-14α demethylase (P45014DM) enzyme) at 10 ug/ml, 50 ug/ml, and […], respectively. A sample of each is collected at 2, 4, and 6 hours after treatment. Control samples treated with DMSO (dimethyl sulfoxide-solvent for ketoconazole) but not with ketoconazole are also collected. Total RNA from each sample is collected by conventional methods, such as a Zirconium/Silica bead binding and extraction method. The sequence content of each sample is analyzed and compared by hybridizing each of them to a number of yeast ORF sequences immobilized on a Nylon membrane in an array format.
Using this method, over 600 RNA transcripts levels are shown to be altered.

With `CC(=O)N1CCN(c2ccc(OCC3COC(Cn4ccnc4)(c4ccc(Cl)cc4Cl)O3)cc2)CC1` (stereo not shown) [ketoconazole] the “Effect of ketoconazole addition on yeast HES1 transcript level” value was “particularly effected”.
